# Test results taken from patent US11058700B2, “Macrocyclic lactones and uses thereof as modulators of purinergic receptors” (City of Hope, priority 2015, dated 2021).
# Experiments:
# [1] = test system: 4T1.2 breast cancer cells; assay: Plasma membrane polarization; type: cell-based; conditions: mouse 4T1.2 cells
# Procedure: Plasma membrane polarization. Cancer cells in suspension were treated with various doses of Ivermectin in the presence of 0.5 μM DiBAC4 (3) (Sigma D8189). Treatments were performed in serum free RPMI medium and cells were analyzed by flow cytometry after 1h of incubation. De-/hyper-polarization results in increased/decreased fluorescence in the GFP channel, respectively.
# [2] = test system: 4T1.2 cells; assay: Mitochondrial membrane potential (JC-1); type: cell-based, mouse
# Procedure: FIGS. 4A-4D. Excessive Ca^2+/CaMKII signaling and MPTP contribute to cell death. FIG. 4A: Kinetics of cytosolic Ca^2+ increase in 4T1.2 cells treated with Ivermectin. […] 4T1.2 cells were treated for 4 h with 32 μM Ivermectin in the presence of the P2X7/CaMKII dual inhibitor KN-62 or the CaMKII-specific inhibitor KN-63, at μM concentrations as indicated. FIG. 4C: Flow cytometry analysis of JC-1 loaded 4T1.2 cells showing that high doses of Ivermectin result in a sudden mitochondrial de-polarization, while lower doses cause similar effects but after transient hyper-polarization. FIG. 4D: MPTP contributes to Ivermectin. 4T1.2 cells were treated for 4 h with 32 μM Ivermectin in the presence of the MPTP inhibitor Cyclosporin A at μM concentrations as indicated. Asterisk (*) indicates p<0.05 relative to untreated or Ivermectin alone controls, respectively.
# Mitochondrial membrane potential. Cancer cells in suspension were washed with PBS and loaded with 2 μM JC-1 (Life Technologies, T3168) for 15 min at room temperature in the dark. Cells were washed twice with PBS and treated with various doses of Ivermectin in R10 medium. Cells were incubated for 1 h/4 h in 5 ml FACS tubes at 37° C. and 5% CO2. After 1h/4h of treatment cells were analyzed by flow cytometry. Mitochondrial polarization was evaluated by measuring the corresponding changes in fluorescence in the FITC and PE channels. […]
# [3] = test system: murine and human TNBC cells; assay: Reactive oxygen species; type: cell-based, mouse
# Procedure: Reactive oxygen and nitrogen species. Cancer cells in suspension were washed with PBS and loaded with 50 μM H2DCFDA (Molecular Probes, Life Technologies, D399) or 5 μM DAF-2 (Cayman Chemical, Catalog #85165) for 30 min at room temperature in the dark. Cells were washed twice with PBS and treated with various doses of Ivermectin in R10 medium. Cells were incubated for 1h in 5 ml FACS tubes at 37° C. and 5% CO2, and immediately analyzed by flow cytometry. Generation of intracellular ROS and NO results in corresponding increases in the GFP fluorescence of the H2DCFDA and DAF-2 probes, respectively.
# [4] = test system: Caspase-1, Caspase-3 and PARP in 4T1.2 and MDA-MB-231 cells; assay: Caspase activation and PARP cleavage; type: cell-based, mouse, human; conditions: 32 μM, 4 h
# Procedure: FIGS. 1A-1H. Ivermectin kills breast cancer cells through a mixed apoptotic and necrotic mechanism. FIG. 1A: Mouse (4T1.2) and human (MDA-MB-231) TNBC cells manifest similar sensitivity to Ivermectin. Viability of cells treated with various doses of Ivermectin for 24 h. FIG. 1B: Extended exposure time reduces IC50 values to as low as 2 μM. 4T1.2 cells were seeded at 100 cells/well and individual colonies were counted after a week. Cancer cells were exposed to Ivermectin during the initial 24 h or during the entire duration of the assay. FIG. 1C: MDA-MB-231 breast cancer cells manifest higher sensitivity to Ivermectin compared to normal non-transformed human foreskin fibroblasts (HFFs). FIG. 1D: Flow cytometry analysis showing that cell death proceeds through two distinct pathways: a directly necrotic 7AAD-single positive or Annexin V/PS-single positive apoptotic pathway. FIG. 1E: Kinetics of necrotic versus apoptotic killing of 4T1.2 breast cancer cells. FIG. 1F: Ivermectin-induced cell death can be reversed by inhibition of various controlled cell death pathways. 4T1.2 cells were treated for 4 h with 32 μM Ivermectin in the presence of μM concentrations of Z-vad-fmk, Necrostatin-1, Digoxin, or VX-765, as indicated. […]
# Caspase activation and PARP cleavage. […] PARP cleavage was analyzed after fixing the cells (eBioscience, Cat #00-5123 and Cat #00-5223) for 30 min at RT. […]
# [5] = test system: murine and human TNBC cells; assay: HMGB1 and LDH Release; type: cell-based, mouse
# Procedure: FIGS. 6A-6E. Ivermectin induces autophagy. FIG. 6A: Ivermectin induces autophagy in breast cancer cells. MDA-MB-231 GFL-LC3 cells were treated with different doses of Ivermectin for 24 h and formation of green fluorescent puncta was evaluated by confocal fluorescence microscopy. FIG. 6B: Western blot confirming the induction of autophagy in both murine and human breast cancer cells, as evidenced by LC3 lipidation and autophagic degradation of p62(SQSTM1). […] MDA-MB-231 cells (triplicates) were treated with different doses of Ivermectin for up to 24h and surface stained with antibody-specific for the human M6P receptor versus isotype control. Similarly, 4T1.2 and MB231 cells were treated with different doses of Ivermectin for 4-24 h, and were stained with an antibody specific for both human and mouse CRT versus isotype control. Mean fluorescent intensity (MFI) values and ratios versus isotype control were calculated after gating on live/membrane-intact cells. FIG. 6D: Ivermectin (32 μM) induces release of HMGB1 from murine and human TNBC cells (triplicates). […] Asterisk (*) indicates p<0.05 relative to untreated or Ivermectin alone controls, respectively.
# HMGB1 and LDH Release. HMGB1 and LDH release were evaluated using an HMGB1 detection kit (IBL International, ST51011) and the CYTOTOX96® Non Radioactive Cytotoxicity Assay (Promega, G1780),following manufacturers' instructions.
smiles,measurement,setting,value
CC[C@H](C)[C@H]1O[C@]2(CC[C@@H]1C)C[C@@H]1C[C@@H](C/C=C(\C)[C@@H](O[C@H]3C[C@H](OC)[C@@H](O[C@H]4C[C@H](OC)[C@@H](O)[C@H](C)O4)[C@H](C)O3)[C@@H](C)/C=C/C=C3\CO[C@@H]4[C@H](O)C(C)=C[C@@H](C(=O)O1)[C@]34O)O2 [Ivermectin],plasma membrane polarization,[1],plasma membrane hyper-polarization
same,mitochondrial polarization,"[2]; high doses of Ivermectin, massive cell death",sudden depolarization of mitochondria
same,mitochondrial polarization,[2]; lower doses of Ivermectin,mitochondrial hyperpolarization
same,generation of ROS,[3],induces generation of ROS
same,PARP cleavage,[4],rapid cleavage of PARP
same,caspase activation,[4],potent caspase-1 and caspase-3 activation
same,HMGB1 release,[5]; 32 μM,potent inducer of HMGB1 release
same,LDH release,[5]; normalized to maximum release (lysis),induces release of cytosolic LDH
